What follows are molecules tested on HCV 1b-377-neo replicon cells (assay: HCV replicon assay, HCV 1b-377-neo replicon cells (1b FRET)). Details: HCV 1b-377-neo replicon cells; HCV 1b genotype; read-out: EC50 range against HCV 1b (Table 2, Range).
Assay type: cell-based, Hepatitis C virus genotype 1b
Procedure, shortened: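 Compounds tested in HCV genotype 1b-377-neo replicon cells with a FRET read-out. Cells resistant to a reference NS5A inhibitor through a Y2065H NS5A mutation were run alongside wild-type cells.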

Row | SMILES | EC50 [nM]
1 | COC(=O)N[C@H](C(=O)N1CCC[C@H]1c1ncc(-c2ccc(-c3ccc(-c4cnc([C@@H]5CCCN5C(=O)N5CCN(C)CC5)[nH]4)cc3)cc2)[nH]1)C(C)C [Example M82, methyl ((1S)-2-methyl-1-(((2S)-2-(5-(4′-(2-((2S)-1-((4-methyl-1-piperazinyl)carbonyl)-2-pyrrolidinyl)-1H-imidazol-5-yl)-4-biphenylyl)-1H-imidazol-2-yl)-1-pyrrolidinyl)carbonyl)propyl) carbamate] | 1 to 99

Same assay, conditions: Hepatitis C virus, HCV 1b-377-neo replicon cells; HCV 1b genotype; read-out: EC50 range against HCV 1b (Table 2, Range)

Row | SMILES | EC50 [nM]
2 | CC(=O)N[C@@H](C(=O)N1CCC[C@H]1c1ncc(-c2ccc(-c3ccc(-c4cnc([C@@H]5CCCN5C(=O)[C@H](NC(C)=O)c5ccccc5)[nH]4)cn3)cc2)[nH]1)c1ccccc1 [Example 139, N-((1R)-2-((2S)-2-(5-(6-(4-(2-((2S)-1-((2R)-2-acetamido-2-phenylacetyl)-2-pyrrolidinyl)-1H-imidazol-5-yl)phenyl)-3-pyridinyl)-1H-imidazol-2-yl)-1-pyrrolidinyl)-2-oxo-1-phenylethyl)acetamide] | 0.001 to 0.999
3 | CN1CCC[C@H]1C(=O)N[C@@H](C(=O)N1CCC[C@H]1c1ncc(-c2ccc(-c3ccc(-c4cnc([C@@H]5CCCN5C(=O)[C@H](NC(=O)[C@@H]5CCCN5C)c5ccccc5)[nH]4)cc3)cc2)[nH]1)c1ccccc1 [Example 25-3, (2S,2′S)-N,N′-(4,4′-biphenyldiylbis(1H-imidazole-5,2-diyl(2S)-2,1-pyrrolidinediyl((1R)-2-oxo-1-phenyl-2,1-ethanediyl)))bis(1-methyl-2-pyrrolidinecarboxamide)] | 0.001 to 0.999
4 | COC(=O)N[C@@H](C)C(=O)N1CCC[C@H]1c1ncc(-c2ccc(-c3ccc(-c4cnc([C@@H]5CCCN5C(=O)[C@@H]5CCN5C(=O)OC)[nH]4)cc3)cc2)[nH]1 [cj-49, methyl (2S)-2-(((2S)-2-(5-(4′-(2-((2S)-1-(N-(methoxycarbonyl)-L-alanyl)-2-pyrrolidinyl)-1H-imidazol-5-yl)-4-biphenylyl)-1H-imidazol-2-yl)-1-pyrrolidinyl)carbonyl)-1-azetidinecarboxylate] | 1 to 99
5 | COC(=O)N[C@H](C(=O)N1CCC[C@H]1c1ncc(-c2ccc(-c3ccc(-c4cnc([C@@H]5CCCN5C(=O)[C@H](NC(=O)OC)c5ccccc5)[nH]4)cc3)cc2)[nH]1)C(C)C [Example M80, methyl ((1S)-1-(((2S)-2-(5-(4′-(2-((2S)-1-((2R)-2-((methoxycarbonyl)amino)-2-phenylacetyl)-2-pyrrolidinyl)-1H-imidazol-5-yl)-4-biphenylyl)-1H-imidazol-2-yl)-1-pyrrolidinyl)carbonyl)-2-methylpropyl)carbamate] | 1 to 99
6 | CCN(CC)[C@@H](C(=O)N1CCC[C@H]1c1ncc(-c2ccc(-c3ccc(-c4cnc([C@@H]5CCCN5C(=O)[C@H](NC(=O)OC)c5ccccc5)[nH]4)c(F)c3)cc2F)[nH]1)c1ccccc1 [Example D64, methyl ((1R)-2-((2S)-2-(5-(4′-(2-((2S)-1-((2R)-2-(diethylamino)-2-phenylacetyl)-2-pyrrolidinyl)-1H-imidazol-5-yl)-3,3′-difluoro-4-biphenylyl)-1H-imidazol-2-yl)-1-pyrrolidinyl)-2-oxo-1-phenylethyl)carbamate] | 0.001 to 0.999
7 | COC(=O)N[C@@H](C(=O)N1CCC[C@H]1c1ncc(-c2ccc(-c3ccc(-c4cnc([C@@H]5CCCN5C(=O)Cc5csc(C)n5)[nH]4)cc3)cc2)[nH]1)c1ccccc1 [Example 84-72, methyl ((1R)-2-((2S)-2-(5-(4′-(2-((2S)-1-((2-methyl-1,3-thiazol-4-yl)acetyl)-2-pyrrolidinyl)-1H-imidazol-5-yl)-4-biphenylyl)-1H-imidazol-2-yl)-1-pyrrolidinyl)-2-oxo-1-phenylethyl)carbamate] | 1 to 99
8 | COC(=O)N[C@@H](C(=O)N1CCC[C@H]1c1ncc(-c2ccc(-c3ccc(-c4cnc([C@@H]5CCCN5C(=O)CCN(C)C)[nH]4)cc3)cc2)[nH]1)c1ccccc1 [Example 84-15, methyl ((1R)-2-((2S)-2-(5-(4′-(2-((2S)-1-(N,N-dimethyl-beta-alanyl)-2-pyrrolidinyl)-1H-imidazol-5-yl)-4-biphenylyl)-1H-imidazol-2-yl)-1-pyrrolidinyl)-2-oxo-1-phenylethyl)carbamate] | 1 to 99
9 | O=C(c1ccccc1)N1CCC[C@H]1c1ncc(-c2ccc(-c3ccc(-c4cnc([C@@H]5CCCN5C(=O)c5ccccc5)[nH]4)cc3)cc2)[nH]1 [Example 6, 5,5′-(4,4′-biphenyldiyl)bis(2-((2S)-1-benzoyl-2-pyrrolidinyl)-1H-imidazole)] | 1 to 99
10 | CCN(CC)[C@@H](C(=O)N1CCC[C@H]1c1ncc(-c2ccc(-c3ccc(-c4cnc([C@@H]5CCCN5C(=O)CNC(=O)OC)[nH]4)cc3)cc2)[nH]1)c1ccccc1 [Example M50, methyl (2-((2S)-2-(5-(4′-(2-((2S)-1-((2R)-2-(diethylamino)-2-phenylacetyl)-2-pyrrolidinyl)-1H-imidazol-5-yl)-4-biphenylyl)-1H-imidazol-2-yl)-1-pyrrolidinyl)-2-oxoethyl)carbamate] | 1 to 99
11 | CCN(CC)[C@@H](C(=O)N1CCC[C@H]1c1ncc(-c2ccc(-c3ccc(-c4cnc([C@@H]5CCCN5C(=O)[C@@H](Nc5cccnc5)C(C)C)[nH]4)cc3)cc2)[nH]1)c1ccccc1 [cj-20c, N-((1S)-1-(((2S)-2-(5-(4′-(2-((2S)-1-((2R)-2-(diethylamino)-2-phenylacetyl)-2-pyrrolidinyl)-1H-imidazol-5-yl)-4-biphenylyl)-1H-imidazol-2-yl)-1-pyrrolidinyl)carbonyl)-2-methylpropyl)-3-pyridinamine] | 0.001 to 0.999
12 | CC[C@H](NC(=O)OC)C(=O)N1[C@H](c2ncc(-c3ccc(-c4ccc(-c5cnc([C@@H]6C[C@@H]7C[C@@H]7N6C(=O)[C@H](CC)NC(=O)OC)[nH]5)cc4)cc3)[nH]2)C[C@@H]2C[C@@H]21 [Example M126, dimethyl (4,4′-biphenyldiylbis(1H-imidazole-5,2-diyl(1S,3S,5S)-2-azabicyclo[3.1.0]hexane-3,2-diyl((2S)-1-oxo-1,2-butanediyl)))biscarbamate] | 1 to 99
13 | COC(=O)N[C@@H](C(=O)N1CCC[C@H]1c1ncc(-c2ccc(-c3ccc(-c4cnc([C@@H]5CCCN5C(=O)C5(c6ccc(Cl)cc6)CC5)[nH]4)cc3)cc2)[nH]1)c1ccccc1 [Example 84-78, methyl ((1R)-2-((2S)-2-(5-(4′-(2-((2S)-1-((1-(4-chlorophenyl)cyclopropyl)carbonyl)-2-pyrrolidinyl)-1H-imidazol-5-yl)-4-biphenylyl)-1H-imidazol-2-yl)-1-pyrrolidinyl)-2-oxo-1-phenylethyl)carbamate] | 0.001 to 0.999
14 | COC(=O)N[C@@H](C(=O)N1[C@H](c2ncc(-c3ccc(-c4ccc(-c5cnc([C@@H]6C[C@@H]7C[C@@H]7N6C(=O)[C@H](NC(=O)OC)c6ccccc6)[nH]5)cc4)cc3)[nH]2)C[C@@H]2C[C@@H]21)c1ccccc1 [Example M124, dimethyl (4,4′-biphenyldiylbis(1H-imidazole-5,2-diyl(1S,3S,5S)-2-azabicyclo[3.1.0]hexane-3,2-diyl((1R)-2-oxo-1-phenyl-2,1-ethanediyl)))biscarbamate] | 1 to 99
15 | COC(=O)N[C@H](C(=O)N1CCC[C@H]1c1ncc(-c2ccc(-c3ccc(-c4cnc([C@@H]5CCCN5C(=O)[C@@H](NC(=O)OC)C5CC5)[nH]4)cc3)cc2)[nH]1)C1CC1 [Example M23, dimethyl (4,4′-biphenyldiylbis(1H-imidazole-5,2-diyl(2S)-2,1-pyrrolidinediyl((1S)-1-cyclopropyl-2-oxo-2,1-ethanediyl)))biscarbamate] | 1 to 99
16 | CC(=O)N[C@H](C(=O)N1[C@@H]2C[C@@H]2C[C@H]1c1ncc(-c2ccc(-c3ccc(-c4cnc([C@@H]5C[C@H]6C[C@H]6N5C(=O)[C@@H](NC(C)=O)C(C)C)[nH]4)cc3)cc2)[nH]1)C(C)C [Example M140, N-((1S)-1-(((1R,3S,5R)-3-(4-(4′-(2-((1R,3S,5R)-2-((2S)-2-acetamido-3-methylbutanoyl)-2-azabicyclo[3.1.0]hex-3-yl)-1H-imidazol-4-yl)-4-biphenylyl)-1H-imidazol-2-yl)-2-azabicyclo[3.1.0]hex-2-yl)carbonyl)-2-methylpropyl)acetamide] | 0.001 to 0.999
17 | CN(C)[C@@H](C(=O)N1CCC[C@H]1c1ncc(-c2ccc(-c3ccc(-c4cnc([C@@H]5CCCN5C(=O)Cc5cccnc5)[nH]4)cc3)cc2)[nH]1)c1ccccc1 [Example 85, (1R)-N,N-dimethyl-2-oxo-1-phenyl-2((2S)-2-(5-(4′-(2-((2S)-1-(3-pyridinylacetyl)-2-pyrrolidinyl)-1H-imidazol-5-yl)-4-biphenylyl)-1H-imidazol-2-yl)-1-pyrrolidinyl)ethanamine] | 0.001 to 0.999
18 | CCN(CC)[C@@H](C(=O)N1CCC[C@H]1c1ncc(-c2ccc(-c3ccc(-c4cnc([C@@H]5CCCN5C(=O)[C@@H](NC(=O)OC)C(C)C)[nH]4)c(F)c3)cc2)[nH]1)c1ccccc1 [Example D35, methyl ((1S)-1-(((2S)-2-(5-(4′-(2-((2S)-1-((2R)-2-(diethylamino)-2 - phenylacetyl)-2-pyrrolidinyl)-1H-imidazol-5-yl)-3-fluoro-4-biphenylyl)-1H-imidazol-2-yl)-1-pyrrolidinyl)carbonyl)-2-methylpropyl) carbamate] | 0.001 to 0.999
19 | CCN(CC)[C@@H](C(=O)N1CCC[C@H]1c1ncc(-c2ccc(-c3ccc(-c4cnc([C@@H]5CCCN5C(=O)C[C@@H](Cc5cccs5)NC(=O)OC)[nH]4)cc3)cc2)[nH]1)c1ccccc1 [cj-56, methyl ((1S)-3-((2S)-2-(5-(4′-(2-((2S)-1-((2R)-2-(diethylamino)-2-phenylacetyl)-2-pyrrolidinyl)-1H-imidazol-5-yl)-4-biphenylyl)-1H-imidazol-2-yl)-1-pyrrolidinyl)-3-oxo-1-(2-thienylmethyl)propyl)carbamate] | 0.001 to 0.999
